Measurements published in patent US11390580B2, “Anti-fungals targeting the synthesis of fungal shingolipids” (THE RESEARCH FOUNDATION FOR THE STATE UNIVERSITY OF NEW YORK, priority 2014, dated 2022).
Values after ≈ are worked out from the molar mass of the structure shown. Like-named read-outs stand apart in the source and are kept apart here.

Tests used:
[1] = test system: Candida guilliermondii; test: In vitro susceptibility testing (MIC); assay type: cell-based
[2] = test system: Aspergillus fumigatus; test: In vitro susceptibility testing (MIC); assay type: cell-based
[3] = test system: Paecilomyces variotii; test: In vitro susceptibility testing (MIC); assay type: cell-based; conditions: for BHBM 24 Hr 50% / BHBM 48 Hr 50%: MIC, QC strain
[4] = test system: synthesis of GlcCer in mammalian (J774) cells; test: In vivo labeling with 3H palmitate, TLC of GlcCer; assay type: cell-based, murine; conditions: 3H palmitate labeling
[5] = test system: intracellular C. neoformans; test: Intracellular effect in J774.16 macrophages; assay type: cell-based, Cryptococcus neoformans; conditions: dose-dependent, particularly after 12 and 24 hours
Description: After 2 hours of incubation, about 60-80% of macrophages have at least one C. neoformans cell internalized. At this time, wells were washed to remove extracellular fungal cells and fresh DMEM medium without serum and without mAb 18B7 but containing different concentrations of BHBM was added. […] At selected time points, 0, 6, 12 and 24 hours, extracellular cells were collected by washing and plated onto YPD for CFU counting of extracellular cells. Then, macrophages containing C. neofromans were lysed, collected and serial dilutions were plated onto YPD for CFU counting of intracellular fungal cells.

[6] = Solubility; assay type: physicochemical; conditions: at 1 mg/ml concentration
[7] = Pharmacokinetics of BHBM; assay type: in vivo, mice
Description: The mice from each group were sacrificed and blood samples were collected at pre-dose and 0.5, 1, 2, 4, 8, 12, and 24 post-administration into K2EDTA containing tubes. The samples were centrifuged immediately and plasma was collected and stored at −80° C. until analysis. Plasma samples were extracted using methylene chloride. […] After mixing, 1 ml of methylene chloride was added and the samples were vortex mixed for 30 seconds followed by centrifugation for 5 minutes. […] The residue was reconstituted in 100 μL acetonitrile: water (50:50) solution, mixed and transferred to mass spec vials. […] The mobile phase consisted of water: acetonitrile with 0.1% formic acid (50:50) ran at a flow rate of 200 μL/min. Aliquots of 5 μL were analyzed using LTQ-FT liquid chromatography/tandem mass spectrometer (LC/MS/MS) with electrospray source in the positive ion mode (ThermoFisher Scientific, Waltham, Mass.). The retention time of BHBM was 5.7 mins. The lower limit of quantification (LLOQ) was 10 ng/ml. Systemic exposure of BHBM in mice was quantified by calculating the AUC of the drug from pre-dose to the end of the dosing interval (AUC0-t) using the linear trapezoidal rule by non-compartmental analysis employing Phoenix winNonlin 6.3 (Pharsight Corp, Mountain View, Calif.). The elimination half-life (t1/2) was calculated as 0.693/λz, where λz is the terminal elimination rate constant. Bioavailability of IP route was calculated.

[8] = test system: Smt1; test: In vitro Smt1 activity; assay type: biochemical, C. neoformans
[9] = test system: Golgi morphology of C. albicans; test: C6-NBD-ceramide staining of the Golgi; assay type: cell-based, Candida albicans; conditions: 4 μg/ml
Description: The Golgi apparatus of C. neoformans and C. albicans was stained with C6-NBD-ceramide using a previously described protocol (Kmetzsch, L. et al. 2011), based on the property that this fluorescent lipid accumulates at the Golgi of either living or fixed cells (Pagano R. E. et al. 1989). […] Cell suspensions were then washed with the same buffer and incubated with C6-NBD-ceramide ([…]) for 16 h at 4° C. The cells were then incubated with bovine serum albumin (BSA, 1%) at 4° C. for 1 h to remove the excess of C6-NBD-ceramide. […] Louis, USA) for 30 min at room temperature. The cells were washed again with PBS and stained cell suspensions were mounted over glass slides as described above and analyzed under an Axioplan 2 (Zeiss, Germany).

[10] = test system: S. cerevisiae heterozygote library mutants
[11] = In vivo toxicity in uninfected mice
[12] = target: Gcs1 (Cryptococcus neoformans, UniProt J9W453); test: In vitro Gcs1 activity in cell lysate
Gcs1, sequence (J9W453 whole entry, the tested form may be a part): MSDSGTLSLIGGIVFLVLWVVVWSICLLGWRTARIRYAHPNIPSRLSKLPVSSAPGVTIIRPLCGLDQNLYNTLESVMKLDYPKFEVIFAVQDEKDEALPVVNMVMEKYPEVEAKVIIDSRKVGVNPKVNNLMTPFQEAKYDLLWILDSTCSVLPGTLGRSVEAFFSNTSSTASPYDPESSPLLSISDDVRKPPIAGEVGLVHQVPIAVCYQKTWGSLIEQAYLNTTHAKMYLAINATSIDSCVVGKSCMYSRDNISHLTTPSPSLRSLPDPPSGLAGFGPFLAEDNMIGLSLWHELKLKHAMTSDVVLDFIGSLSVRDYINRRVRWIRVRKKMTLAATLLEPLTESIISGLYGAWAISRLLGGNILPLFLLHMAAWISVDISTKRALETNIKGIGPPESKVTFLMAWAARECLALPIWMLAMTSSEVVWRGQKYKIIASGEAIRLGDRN

[13] = test system: P. aeruginosa PA14; test: Antibacterial activity, LB agar well diffusion; conditions: up to 160 μg/mL, 30° C., 24 hr
[14] = test system: Pneumocystis murina; test: In vitro testing by ATP content (luciferin-luciferase); conditions: for inhibition at 0.1 µg/mL / inhibition at 1 µg/mL / inhibition at 10 µg/mL / inhibition at 100 µg/mL: read-out: percentage inhibition of ATP
[15] = C3H/HeN, mouse, in vivo, ip, 0.8 mg/kg
[16] = C3H/HeN, mouse, in vivo, ip, 1.6 mg/kg

In the case of `Cc1ccccc1C(=O)NN=Cc1ccc(O)c(Br)c1` [BHBM, N′-(3-bromo-4-hydroxybenzylidene)-2-methylbenzohydrazide], the “BHBM 24 Hr 50%” value ([1]; MIC, FTL strains) is reported as over 16, the “BHBM 48 Hr 50%” value ([1]; MIC, FTL strains) is reported as over 16 and the MIC ([1]; Meyerozyma guilliermondii, read-out: MIC (moderately active)) is reported as 8 to 16 µg/mL (≈ 24 to 48 µM). For the same compound, the MIC range ([2]; 1 MDP Lab strain) was 8 µg/mL (≈ 24 µM), the MIC range ([2]; 3 Fungus Testing Lab strains) was over 16 µg/mL and the MIC ([2]; Aspergillus fumigatus, read-out: MIC (moderately active)) was 8 to 16 µg/mL (≈ 24 to 48 µM). The “in vitro activity” value [3] was “not active”, the “BHBM 24 Hr 50%” value [3] was 8 and the “BHBM 48 Hr 50%” value [3] was over 16. The “BHBM 24 Hr 50%” value ([3]; first listing r7-r78) was 8, the “BHBM 48 Hr 50%” value ([3]; first listing r7-r78) was over 16 and the MIC range ([3]; QC, Fungus Testing Lab) was over 16 µg/mL. For the same compound, the “inhibition of the synthesis of GlcCer” value [4] was “no significant changes”, the “inhibition of the synthesis of GlcCer” value ([4]; listed as #5271226) was “not in mammalian (J774) cells” and the “intracellular replication of C. neoformans” value [5] was “significantly decrease the intracellular replication”. The DMSO required [6] was 30%, the bioavailability [7, 15] was 93.6% and the half-life [7, 15] was 0.79 h. For the same compound, the bioavailability [7, 16] was 100.33%, the half-life [7, 16] was 0.84 h and the half-life ([7]; C3H/HeN, mouse, in vivo, iv, 1.6 mg/kg) was 1.24 h. The bioavailability ([7]; C3H/HeN, mouse, plasma, 0.8 mg/kg, immunocompetent mice, IP low dose, read-out: bioavailability) was 93.6%, the half-life ([7]; C3H/HeN, mouse, plasma, intraperitoneal, 1.6 mg/kg) was about 1.4 h and the “systemic exposure (AUC0-t and Cmax)” value ([7]; IP administration, compared to normal group) was “higher in immunosuppressed/infected group”. It also gave a bioavailability ([7]; immunocompetent mice, IP high dose) of 90.59%, a half-life ([7]; immunocompetent mice, IP high dose (1.6 mg/kg)) of 1.43 h and a half-life ([7]; immunocompetent mice, IP low dose (0.8 mg/kg)) of 1.70 h. The half-life ([7]; immunocompetent mice, IV high dose (1.6 mg/kg)) was 1.03 h, the “in vitro activity of Smt1” value [8] was “does not inhibit” and the Golgi morphology [9] was “changes in the Golgi morphology were dramatic”. The “Fold increased sensitivity to BHBM” value ([10]; ACT1 heterozygote mutant) was 2.0 Fold, the “Fold increased sensitivity to BHBM” value ([10]; GLC7 heterozygote mutant) was 2.1 Fold and the “Fold increased sensitivity to BHBM” value ([10]; GOS1 heterozygote mutant) was 2.1 Fold. For the same compound, the “Fold increased sensitivity to BHBM” value ([10]; MTW1 heterozygote mutant) was 2.5 Fold, the “Fold increased sensitivity to BHBM” value ([10]; PEP7 heterozygote mutant) was 2.2 Fold and the “Fold increased sensitivity to BHBM” value ([10]; REG1 heterozygote mutant) was 2.5 Fold. For the same compound, the “Fold increased sensitivity to BHBM” value ([10]; RET2 heterozygote mutant) was 3.8 Fold, the “Fold increased sensitivity to BHBM” value ([10]; RET3 heterozygote mutant) was 2.0 Fold and the “times more sensitive to BHBM” value ([10]; Rvs167) was 1.7 time. The “Fold increased sensitivity to BHBM” value ([10]; SAP4 heterozygote mutant) was 2.1 Fold, the “Fold increased sensitivity to BHBM” value ([10]; SEC26 heterozygote mutant) was 2. Fold and the “Fold increased sensitivity to BHBM” value ([10]; SEC31 heterozygote mutant) was 2.1 Fold. The “Fold increased sensitivity to BHBM” value ([10]; SNF8 heterozygote mutant) was 2.1 Fold, the “Fold increased sensitivity to BHBM” value ([10]; SPT4 heterozygote mutant) was 2.3 Fold and the “Fold increased sensitivity to BHBM” value ([10]; UBP3 heterozygote mutant) was 3.0 Fold. For the same compound, the “Fold increased sensitivity to BHBM” value ([10]; VPS3 heterozygote mutant) was 2.0 Fold, the “Fold increased sensitivity to BHBM” value ([10]; YML018C heterozygote mutant) was 2.1 Fold and the “liver Aspartate aminotransferase (AST)” value ([11]; 1.2 mg/kg/day intraperitoneally for 60 days) was 125±75 U/L. For the same compound, the “other blood parameters for liver and kidney function” value ([11]; 60 days) was “normal”, the “histological analysis of organs vs untreated uninfected mice” value ([11]; lungs, brains, kidney, spleen, liver, 60 days) was “no difference” and the “appearance, weight, physical activity and behavior” value ([11]; treated daily for 60 days) was “appeared normal”. For the same compound, the “in vitro activity of Gcs1” value [12] was “does not inhibit”, the zone of inhibition [13] was “No zone of inhibition” and the IC50 ([14]; 24 h, read-out: IC50, P. murina) was 1.02 µg/mL (≈ 3.06 µM). For the same compound, the inhibition at 0.1 µg/mL ([14]; 24 h) was 6.64%, the inhibition at 1 µg/mL ([14]; 24 h) was 66.2% and the inhibition at 10 µg/mL ([14]; 24 h) was 88.2%. For the same compound, the inhibition at 100 µg/mL ([14]; 24 h) was 97%, the IC50 ([14]; 48 h, read-out: IC50, P. murina) was under 0.01 µg/mL and the inhibition at 0.1 µg/mL ([14]; 48 h) was 76%. It also gave an inhibition at 1 µg/mL ([14]; 48 h) of 87.6%, an inhibition at 10 µg/mL ([14]; 48 h) of 94.6% and an inhibition at 100 µg/mL ([14]; 48 h) of 98.9%. It also gave an IC50 ([14]; 72 h, read-out: IC50, P. murina) of under 0.01 µg/mL, an inhibition at 0.1 µg/mL ([14]; 72 h) of 63.8% and an inhibition at 1 µg/mL ([14]; 72 h) of 74.6%. The inhibition at 10 µg/mL ([14]; 72 h) was 93.6%, the inhibition at 100 µg/mL ([14]; 72 h) was 99.4% and the IC50 ([14]; 96 h, read-out: IC50, P. murina) was 2.02 µg/mL (≈ 6.06 µM). It also gave an inhibition at 0.1 µg/mL ([14]; 96 h) of 16.6%, an inhibition at 1 µg/mL ([14]; 96 h) of 44.5% and an inhibition at 10 µg/mL ([14]; 96 h) of 66.7%. For the same compound, the inhibition at 100 µg/mL ([14]; 96 h) was 91.5% and the IC50 ([14]; read-out: activity class by IC50, P. murina) was under 0.01 µg/mL.
